# Reference: ChEMBL document CHEMBL1134160 (Bioorg Med Chem Lett, 2001)
# Experiments:
# [1] = biological target: Neuronal acetylcholine receptor; alpha4/beta2 (Homo sapiens, UniProt P17787+P43681); assay: In vitro Binding affinity towards Nicotinic acetylcholine receptor alpha4-beta2 was determined; format: protein-complex assay
# [2] = biological target: T1, Acetylcholine receptor; alpha1/beta1/delta/gamma (Homo sapiens, UniProt P02708+P07510+P11230+Q07001); assay: In vitro Binding affinity towards alpha-1-beta-1-gamma-delta nAChR was determined; format: protein-complex assay
# [3] = biological target: Neuronal acetylcholine receptor subunit alpha-7 (Homo sapiens, UniProt P36544); assay: Effective concentration that causes inhibition of alpha-7 nAChR, was determined. Values are expressed as EC50 +/- SEM.; format: functional
# [4] = biological target: Neuronal acetylcholine receptor subunit alpha-7 (Mus musculus) (UniProt P49582); assay: Functional activity is expressed as percent efficacy for alpha-7 nAChR.
# [5] = biological target: Serotonin 3 (5-HT3) receptor; assay: In vitro Binding affinity towards 5-hydroxytryptamine 3 receptor was determined; format: protein-complex assay
# [6] = biological target: Neuronal acetylcholine receptor subunit alpha-7 (Mus musculus, UniProt P49582); assay: In vitro Binding affinity towards alpha-7 nAChR was determined
# [7] = biological target: T1, Acetylcholine receptor; alpha1/beta1/delta/gamma; assay: In vitro Binding affinity towards alpha-1-beta-1-gamma delta nAChR was determined
# Sequence of Neuronal acetylcholine receptor; alpha4/beta2 (P17787 whole entry): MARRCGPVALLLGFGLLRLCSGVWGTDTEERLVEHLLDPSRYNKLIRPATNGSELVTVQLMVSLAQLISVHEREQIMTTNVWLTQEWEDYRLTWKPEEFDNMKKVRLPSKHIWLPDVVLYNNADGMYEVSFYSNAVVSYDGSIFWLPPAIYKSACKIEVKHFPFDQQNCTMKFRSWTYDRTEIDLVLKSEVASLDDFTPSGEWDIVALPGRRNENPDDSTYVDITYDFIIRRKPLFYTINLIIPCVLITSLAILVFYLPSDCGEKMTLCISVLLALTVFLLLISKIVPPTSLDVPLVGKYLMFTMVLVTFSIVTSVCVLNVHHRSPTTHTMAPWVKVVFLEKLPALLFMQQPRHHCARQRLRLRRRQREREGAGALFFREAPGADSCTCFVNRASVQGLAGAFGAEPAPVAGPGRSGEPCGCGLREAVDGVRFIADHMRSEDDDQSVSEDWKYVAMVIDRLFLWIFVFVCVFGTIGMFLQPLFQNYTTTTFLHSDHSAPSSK
# Sequence of Neuronal acetylcholine receptor; alpha4/beta2 (P43681 whole entry): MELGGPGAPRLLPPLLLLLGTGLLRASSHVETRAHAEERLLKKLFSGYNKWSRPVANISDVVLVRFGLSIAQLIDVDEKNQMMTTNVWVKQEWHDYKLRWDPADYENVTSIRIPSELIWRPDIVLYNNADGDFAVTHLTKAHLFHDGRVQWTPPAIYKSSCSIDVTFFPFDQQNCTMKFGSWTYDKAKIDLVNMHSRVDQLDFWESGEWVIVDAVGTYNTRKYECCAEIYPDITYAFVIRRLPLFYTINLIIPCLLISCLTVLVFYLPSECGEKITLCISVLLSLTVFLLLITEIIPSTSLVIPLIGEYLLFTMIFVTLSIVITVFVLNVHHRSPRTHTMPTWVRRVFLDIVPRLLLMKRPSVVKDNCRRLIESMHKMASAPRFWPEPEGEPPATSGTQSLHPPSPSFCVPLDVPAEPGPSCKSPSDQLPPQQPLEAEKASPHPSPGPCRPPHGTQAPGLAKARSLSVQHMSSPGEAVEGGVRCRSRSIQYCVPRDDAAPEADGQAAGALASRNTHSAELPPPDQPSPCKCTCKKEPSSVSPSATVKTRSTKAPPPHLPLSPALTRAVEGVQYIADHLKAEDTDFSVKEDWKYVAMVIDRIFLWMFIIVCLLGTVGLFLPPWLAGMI
# Sequence of Neuronal acetylcholine receptor subunit alpha-7 (Mus musculus) (P49582 whole entry): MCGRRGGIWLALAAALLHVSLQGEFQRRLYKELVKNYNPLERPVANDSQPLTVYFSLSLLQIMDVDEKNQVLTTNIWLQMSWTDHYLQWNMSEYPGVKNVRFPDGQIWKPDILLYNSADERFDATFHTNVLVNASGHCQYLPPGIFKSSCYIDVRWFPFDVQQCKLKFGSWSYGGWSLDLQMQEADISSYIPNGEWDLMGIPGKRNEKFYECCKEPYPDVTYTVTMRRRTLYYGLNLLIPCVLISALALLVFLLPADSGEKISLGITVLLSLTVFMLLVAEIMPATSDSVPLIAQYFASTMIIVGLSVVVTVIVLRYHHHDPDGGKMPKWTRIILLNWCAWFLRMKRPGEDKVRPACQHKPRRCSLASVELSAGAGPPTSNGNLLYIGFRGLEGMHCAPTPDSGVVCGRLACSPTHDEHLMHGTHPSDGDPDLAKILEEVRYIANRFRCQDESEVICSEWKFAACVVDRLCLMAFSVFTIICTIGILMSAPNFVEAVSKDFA
# Sequence of Neuronal acetylcholine receptor subunit alpha-7 (Mus musculus, UniProt P49582) (P49582 whole entry): as above
# T1 sequence (P02708 whole entry): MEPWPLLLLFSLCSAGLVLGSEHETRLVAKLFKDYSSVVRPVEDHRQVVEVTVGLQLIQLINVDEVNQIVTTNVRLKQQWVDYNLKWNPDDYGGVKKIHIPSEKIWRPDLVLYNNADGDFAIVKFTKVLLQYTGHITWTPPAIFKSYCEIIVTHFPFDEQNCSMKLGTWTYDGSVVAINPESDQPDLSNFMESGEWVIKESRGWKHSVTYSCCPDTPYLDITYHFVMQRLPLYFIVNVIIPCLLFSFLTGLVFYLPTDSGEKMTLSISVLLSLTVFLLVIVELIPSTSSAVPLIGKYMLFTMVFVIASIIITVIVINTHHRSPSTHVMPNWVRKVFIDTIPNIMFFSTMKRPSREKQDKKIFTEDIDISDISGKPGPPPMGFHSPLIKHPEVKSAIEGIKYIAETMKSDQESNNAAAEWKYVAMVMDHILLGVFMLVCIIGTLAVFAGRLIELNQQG
# T1 sequence (P07510 whole entry): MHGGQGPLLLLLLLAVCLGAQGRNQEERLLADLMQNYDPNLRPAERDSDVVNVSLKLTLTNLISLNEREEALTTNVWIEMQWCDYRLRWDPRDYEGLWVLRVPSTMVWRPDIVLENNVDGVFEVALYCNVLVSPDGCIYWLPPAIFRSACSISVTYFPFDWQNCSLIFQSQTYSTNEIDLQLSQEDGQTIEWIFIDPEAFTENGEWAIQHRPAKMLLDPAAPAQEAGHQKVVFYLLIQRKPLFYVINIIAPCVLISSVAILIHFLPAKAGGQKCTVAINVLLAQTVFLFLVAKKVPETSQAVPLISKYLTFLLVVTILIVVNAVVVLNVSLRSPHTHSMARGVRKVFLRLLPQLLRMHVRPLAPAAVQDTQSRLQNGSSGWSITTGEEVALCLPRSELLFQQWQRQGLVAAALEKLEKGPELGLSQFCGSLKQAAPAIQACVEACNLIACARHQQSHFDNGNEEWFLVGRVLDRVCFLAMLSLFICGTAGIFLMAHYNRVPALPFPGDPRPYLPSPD
# T1 sequence (P11230 whole entry): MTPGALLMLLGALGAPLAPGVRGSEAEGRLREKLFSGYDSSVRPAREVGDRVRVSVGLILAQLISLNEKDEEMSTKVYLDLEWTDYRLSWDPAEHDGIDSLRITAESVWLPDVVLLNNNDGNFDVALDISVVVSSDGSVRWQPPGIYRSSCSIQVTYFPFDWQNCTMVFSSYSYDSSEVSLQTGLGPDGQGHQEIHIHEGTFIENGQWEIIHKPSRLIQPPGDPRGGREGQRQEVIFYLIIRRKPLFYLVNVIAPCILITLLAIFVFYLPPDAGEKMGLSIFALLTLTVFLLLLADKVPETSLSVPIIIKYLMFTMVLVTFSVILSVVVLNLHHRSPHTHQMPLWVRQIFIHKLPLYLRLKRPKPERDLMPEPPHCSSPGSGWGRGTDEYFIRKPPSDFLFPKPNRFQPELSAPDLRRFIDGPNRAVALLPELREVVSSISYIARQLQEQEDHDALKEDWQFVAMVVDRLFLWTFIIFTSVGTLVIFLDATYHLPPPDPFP
# T1 sequence (Q07001 whole entry): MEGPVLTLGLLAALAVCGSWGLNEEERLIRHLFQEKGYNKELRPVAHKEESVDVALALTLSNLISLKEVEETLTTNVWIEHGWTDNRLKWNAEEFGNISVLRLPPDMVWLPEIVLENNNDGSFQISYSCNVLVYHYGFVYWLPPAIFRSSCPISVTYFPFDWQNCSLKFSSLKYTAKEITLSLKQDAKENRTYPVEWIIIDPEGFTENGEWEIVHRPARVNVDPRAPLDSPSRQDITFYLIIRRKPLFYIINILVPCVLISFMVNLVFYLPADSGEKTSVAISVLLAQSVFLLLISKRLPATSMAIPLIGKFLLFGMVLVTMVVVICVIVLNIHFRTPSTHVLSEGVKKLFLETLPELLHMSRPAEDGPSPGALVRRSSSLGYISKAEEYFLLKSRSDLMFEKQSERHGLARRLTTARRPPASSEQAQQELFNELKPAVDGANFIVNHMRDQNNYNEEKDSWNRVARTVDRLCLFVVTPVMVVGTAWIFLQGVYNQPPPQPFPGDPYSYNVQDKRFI
# Sequence of Neuronal acetylcholine receptor subunit alpha-7 (Homo sapiens, UniProt P36544) (P36544 whole entry): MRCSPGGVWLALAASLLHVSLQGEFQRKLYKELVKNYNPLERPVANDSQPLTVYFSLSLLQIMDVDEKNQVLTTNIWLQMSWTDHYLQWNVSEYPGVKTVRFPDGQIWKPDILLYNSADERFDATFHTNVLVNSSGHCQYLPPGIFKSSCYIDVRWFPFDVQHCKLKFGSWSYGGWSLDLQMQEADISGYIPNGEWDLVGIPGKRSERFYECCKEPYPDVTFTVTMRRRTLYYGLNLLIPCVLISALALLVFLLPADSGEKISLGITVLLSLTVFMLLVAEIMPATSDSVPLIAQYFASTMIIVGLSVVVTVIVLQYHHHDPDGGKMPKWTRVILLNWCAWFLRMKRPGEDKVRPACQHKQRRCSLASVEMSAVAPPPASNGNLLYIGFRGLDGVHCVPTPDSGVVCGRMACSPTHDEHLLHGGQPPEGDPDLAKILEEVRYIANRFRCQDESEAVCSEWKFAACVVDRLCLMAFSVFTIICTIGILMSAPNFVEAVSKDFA
Compound,Ki [1] [µM],Ki [2] [µM],EC50 [3] [µM],Efficacy [4] [%],Ki [5] [µM],Ki [6] [µM],Ki [7] [µM]
CN1[C@@H]2CC[C@H]1C[C@@H](OC(=O)c1c[nH]c3ccccc13)C2 [TROPISETRON],55,27,–,–,–,–,–
C[N+]1(C)C2CCC1CC(OC(=O)c1c[nH]c3ccccc13)C2 (configuration not stated),7.8,3,0.28,13,0.0072,0.0064,–
CN1CCC[C@H]1c1cccnc1 [NICOTINE],–,–,–,53,71,0.48,5.5
CC(=O)OCC[N+](C)(C)C,–,–,–,100,–,–,–
Cc1nccn1CC1CCc2c(c3ccccc3n2C)C1=O (configuration not stated) [ONDANSETRON],46,–,–,–,–,> 3,–
CN1C2CCCC1CC(NC(=O)c1nn(C)c3ccccc13)C2 (configuration not stated) [GRANISETRON],38,–,–,–,–,> 10,–
O=C(OC1CN2CCC1CC2)n1ccc2ccccc21 (configuration not stated),14,–,4.8,17,0.01,0.0088,–
